Among the test systems are PC-3 prostate; K-562 leukemia; IGROV1 ovarian; HCC-2998 colon; HL-60(TB) leukemia; ACHN renal; UO-31 renal; SK-MEL-2 melanoma; SK-OV-3 ovarian.
Holding throughout (assay): DTP human tumour cell line panel, 48 h

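Following 48 hours of exposure in 96-well plates, responses at five concentrations were used to interpolate endpoints linearly. GI50 marks 50% less growth. The concentration for full growth arrest is given as TGI.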 Some results are limits rather than exact numbers.

As to `Cc1ccc(NC(=O)CSC(N)=O)cc1C`, the TGI in the experiment on PC-3 prostate, in the experiment on K-562 leukemia, with IGROV1 ovarian, in the experiment with HCC-2998 colon, in the experiment with HL-60(TB) leukemia and in the experiment on ACHN renal was above 100 µM throughout. For the same compound, the TGI in the experiment on UO-31 renal and with SK-MEL-2 melanoma was above 100 µM in each case.
As to `C[N+](C)(CCNC(=O)c1cccc2cc3ccccc3nc12)Cc1ccc([N+](=O)[O-])s1`, the TGI in the experiment on PC-3 prostate, in the experiment with K-562 leukemia, in the experiment on IGROV1 ovarian, in the experiment with SK-OV-3 ovarian, in the experiment with HL-60(TB) leukemia and with ACHN renal was above 25 µM each time. In addition, the TGI in the experiment with UO-31 renal and in the experiment on SK-MEL-2 melanoma was above 25 µM throughout.
On to `[N-]=[N+]=C(C(=O)N1CCCC1=O)S(=O)(=O)c1ccccc1`, for which the TGI in the experiment with PC-3 prostate, in the experiment with K-562 leukemia, with IGROV1 ovarian, in the experiment with HCC-2998 colon, with HL-60(TB) leukemia and with ACHN renal was above 100 µM each time. Besides, the TGI in the experiment with UO-31 renal and with SK-MEL-2 melanoma was above 100 µM each time.
As to `COc1cc(CS(=O)c2ccc(O)cc2)cc(OC)c1OC` (stereo not drawn), the TGI with PC-3 prostate, in the experiment on K-562 leukemia, with IGROV1 ovarian, in the experiment with SK-OV-3 ovarian, in the experiment with HL-60(TB) leukemia and with ACHN renal was above 100 µM in each case. For the same compound, the TGI in the experiment on UO-31 renal and with SK-MEL-2 melanoma was above 100 µM in each case.
Turning to `Oc1ccc(Cl)cc1C1=NC(/N=C\c2ccccc2)=NC(c2ccccc2)C1` (stereo not drawn), the TGI in the experiment on PC-3 prostate is above 100 µM; in the experiment with K-562 leukemia, above 100 µM; in the experiment with IGROV1 ovarian, above 100 µM; with SK-OV-3 ovarian, 74.7 µM; in the experiment on UO-31 renal, 74.1 µM; in the experiment with SK-MEL-2 melanoma it was above 100 µM.
Turning to `CN(C)CCCNCc1cccc2ccccc12`, the TGI with PC-3 prostate, in the experiment with K-562 leukemia, with IGROV1 ovarian, in the experiment on SK-OV-3 ovarian, with HL-60(TB) leukemia and in the experiment with ACHN renal was above 100 µM each time. Further, the TGI with UO-31 renal and in the experiment on SK-MEL-2 melanoma was above 100 µM throughout.
Regarding `CCC[C@@H]1C(=O)N=C(N)N1C(=O)OCc1ccccc1`, the TGI in the experiment on PC-3 prostate, with K-562 leukemia, in the experiment with IGROV1 ovarian, with HCC-2998 colon, in the experiment on HL-60(TB) leukemia and in the experiment with ACHN renal was above 100 µM in each case. Also, the TGI with UO-31 renal and with SK-MEL-2 melanoma was above 100 µM in each case.
`C=C(c1ccccc1)c1ccccc1-c1cc(-c2ccccc2)cc(-c2ccccc2)n1`: the TGI in the experiment on PC-3 prostate, with K-562 leukemia, in the experiment on IGROV1 ovarian, in the experiment on HCC-2998 colon, in the experiment on HL-60(TB) leukemia and in the experiment with ACHN renal was above 100 µM throughout. This compound returned a TGI with UO-31 renal above 100 µM.
For `COC(=O)c1c(O)ccc2c1c1c(n2Cc2ccccc2)C(=O)c2ccccc2C1`, the concentration for total growth inhibition (TGI) in the experiment with PC-3 prostate is 60.5 µM; in the experiment with K-562 leukemia it was 46 µM; in the experiment with IGROV1 ovarian it was above 100 µM; with SK-OV-3 ovarian, above 100 µM; with HL-60(TB) leukemia it was above 100 µM; in the experiment on UO-31 renal, above 100 µM. In addition, the TGI in the experiment on SK-MEL-2 melanoma is above 100 µM.
As to `C=C1CN(C2=NCCO2)C1`, the TGI in the experiment with PC-3 prostate, in the experiment with K-562 leukemia, in the experiment on IGROV1 ovarian, in the experiment with HCC-2998 colon, in the experiment with HL-60(TB) leukemia and with ACHN renal was above 100 µM throughout. Also, the TGI with UO-31 renal and with SK-MEL-2 melanoma was above 100 µM each time.
For the compound `O=C(O)CCC(NC(=O)c1ccc(Nc2nc3cc(C(F)(F)F)ccc3nc2C(=O)O)cc1)C(=O)O` (stereo not drawn), the TGI in the experiment with PC-3 prostate, with K-562 leukemia, with IGROV1 ovarian, in the experiment on HCC-2998 colon, in the experiment on HL-60(TB) leukemia and with ACHN renal was above 100 µM each time. Besides, the TGI with UO-31 renal and with SK-MEL-2 melanoma was above 100 µM in each case.
As to `C=C(C)CNC(=S)N(N)c1ccc2ccccc2c1`, the TGI in the experiment on PC-3 prostate, in the experiment on K-562 leukemia, in the experiment with IGROV1 ovarian, in the experiment on SK-OV-3 ovarian, with HCC-2998 colon and in the experiment on HL-60(TB) leukemia was above 100 µM each time. In addition, the total growth inhibition concentration (TGI) with ACHN renal and with UO-31 renal was above 100 µM in each case.
`Cc1ccc(-n2cc([Si](C)(C)C)nn2)s1`: the TGI in the experiment on PC-3 prostate, in the experiment with K-562 leukemia, in the experiment on SK-OV-3 ovarian, in the experiment on HCC-2998 colon, with ACHN renal and in the experiment on UO-31 renal was above 100 µM throughout. The TGI in the experiment with SK-MEL-2 melanoma is above 100 µM.
For the compound `COC(=O)C1=C(C(=O)OC)SC2(S1)C(C(=O)OC)=C(C(=O)OC)Sc1c2ssc1=NC(C)(C)C`, the TGI with PC-3 prostate was 2.75 µM; in the experiment with K-562 leukemia it was 9.66 µM; with IGROV1 ovarian it was 3.16 µM; with SK-OV-3 ovarian it was 18.1 µM; with HL-60(TB) leukemia, 4.73 µM; in the experiment on ACHN renal, 3.35 µM. The TGI with UO-31 renal came to 3.34 µM; in the experiment on SK-MEL-2 melanoma it was 2.82 µM.
In the case of `Brc1ccc2c(-c3csc(-c4c[nH]c5ccccc45)n3)c[nH]c2c1`, the TGI with PC-3 prostate turned out to be 28.9 µM; in the experiment with K-562 leukemia, 37.5 µM; in the experiment with IGROV1 ovarian, 26.6 µM; with SK-OV-3 ovarian, 44.8 µM; in the experiment with HCC-2998 colon, 30.9 µM; in the experiment on ACHN renal, 32.1 µM. For the same compound, the TGI in the experiment on UO-31 renal turned out to be 27.6 µM. Also, the GI50 with K-562 leukemia is 18.8 µM.
Turning to `Cc1sc2nc3n(c(=O)c2c1C)N=CN(c1ccc(F)cc1)C3`, the TGI in the experiment on PC-3 prostate, in the experiment with K-562 leukemia, in the experiment on IGROV1 ovarian, in the experiment with SK-OV-3 ovarian, with HCC-2998 colon and with ACHN renal was above 100 µM each time. Moreover, the TGI with UO-31 renal and with SK-MEL-2 melanoma was above 100 µM in each case.

For the origin of these results see PubChem BioAssay (NCI).
